Values after ≈ are worked out from the molar mass of the structure shown. Where a name gives a salt, the structure may show the parent alone.
What was measured:
Experiment in all cases: In vitro antifungal activity, MIC (Method A)
Assay type in all cases: cell-based
[1] = system: Candida albicans; settings: Candida albicans, 72 h, 3 days, 27° C.
Description: (§1) The in vitro antifungal activities of representative compounds of the present invention were measured by determining the minimal inhibitory concentration (MIC), which is the concentration of an antifungal at which no fungal growth can be observed.
(§2) The MICs were determined by the microbroth dilution procedure according to NCCLS with the following minor modifications (Galgiani et al., Antimicrob. Agents Chemother., 33, 731 (1989). The medium was solidified with 0.2% low melting point agarose and buffered to pH 7.0 with 0.25%: K2 HPO4 in Yeast Nitrogen Base (Difco Lab.). Inoculum size was 1×10^5 cells/ml, and incubation was carried out for 3 days at 27° C. The MICs ([…]) are shown in Table 1. The reference compound is compound (IA) in U.S. Pat. No. 4,952,604. The compounds used are identified by reference to the Examples in which they were prepared.
(§3) The in vitro antifungal activities of the representative compounds of the present invention shown in Table 1 and Table 2 were measured by determining the minimal inhibitory concentrations (MIC: Method A) or 80% growth inhibition concentration (IC80 : Method B) respectively. MIC is defined as the concentration of an antifungal at which growth of fungi is not observed and IC80 is the concentration where cell turbidity measured at OD630 is reduced by 80%.
(§4) Antifungal activities were determined by either method A or B (see below) using microtest plates according NCCLS with minor modifications (Galgiani et at., Antimicrob. Agents Chemother. 33, 731 (1989)).
(§5) (Method A) The medium was solidified with 0.2% low melting point agarose and buffered to pH 7.0 with 0.25% K2 HPO4 in Yeast Nitrogen Base (Difco Lab.). Inoculum size was 1×10^5 cells/ml, and incubation was carried out for 3 days at 27° C. The reference compound is compound (IA) in U.S. Pat. No. 4,952,604.

[2] = system: Cryptococcus neoformans; settings: Cryptococcus neoformans, 72 h, 3 days, 27° C.
Description: as §1, §2, §3, §4, §5

[3] = system: Aspergillus fumigatus; settings: Aspergillus fumigatus, 72 h, 3 days, 27° C.
Description: as §1, §2, §3, §4, §5

[4] = pH 7, Candida albicans CY1002, 1×10^5 cells/ml
[5] = pH 7, Candida albicans CY1005, 1×10^5 cells/ml
[6] = pH 7, Candida albicans CY3003, 1×10^5 cells/ml
[7] = pH 7, Cryptococcus neoformans CY1057, 1×10^5 cells/ml
[8] = pH 7, Cryptococcus neoformans CY1059, 1×10^5 cells/ml
[9] = pH 7, Cryptococcus neoformans CY1061, 1×10^5 cells/ml
[10] = pH 7, Aspergillus fumigatus CF1003, 1×10^5 cells/ml
[11] = pH 7, Aspergillus fumigatus CF1004, 1×10^5 cells/ml
[12] = pH 7, Aspergillus fumigatus CF1023, 1×10^5 cells/ml

Row | SMILES | MIC [1, 4] | MIC [1, 5] | MIC [1, 6] | MIC [2, 7] | MIC [2, 8] | MIC [2, 9] | MIC [3, 10] | MIC [3, 11] | MIC [3, 12]
1 | CCCCCCCCO[C@@H]1CCC(C)(C)C[C@H]1CC(O)CN (relative stereo) [Example 84, 1-[(1S^*,2R^*)-5,5-dimethyl-2-octyloxycyclohexyl]-3-amino-2-propanol] | 12.5 mg/L (≈ 39.9 µM) | 12.5 mg/L (≈ 39.9 µM) | 12.5 mg/L (≈ 39.9 µM) | 3.13 mg/L (≈ 9.98 µM) | 6.25 mg/L (≈ 19.9 µM) | 6.25 mg/L (≈ 19.9 µM) | 25 mg/L (≈ 79.7 µM) | 6.25 mg/L (≈ 19.9 µM) | 6.25 mg/L (≈ 19.9 µM)
2 | CCCCCCC/C=C\[C@@H]1OC[C@H](C)[C@H](OC)[C@H]1OC(=O)CN [Example 1, (2S,3R,4S,5S)-4-methoxy-5-methyl-2-[(Z)-1-nonenyl]tetrahydro-2H-pyran-3-ylglycinate trifluoro acetic acid salt] | 100 mg/L | 100 mg/L | 100 mg/L | 1.56 mg/L | 3.13 mg/L | 6.25 mg/L | 100 mg/L | 200 mg/L | 100 mg/L
3 | CCCCCCCCC[C@@H]1OC[C@H](C)[C@H](OC)[C@@H]1OC(=O)CN.O=CO [Example 5, (2S,3R,4S,5S)-4-methoxy-5-methyl-2-nonyl-tetrahydro-2H-pyran-3-yl glycinate formic acid salt] | 50 mg/L | 25 mg/L | 25 mg/L | 12.5 mg/L | 12.5 mg/L | 25 mg/L | 50 mg/L | 100 mg/L | 50 mg/L
4 | CCCCCCCC/C=C/[C@@H]1OC[C@H](C)[C@H](OC)[C@H]1OC(=O)CN.O=C(O)C(F)(F)F [Example 6, (2S,3R,4S,5S)-2-[(E)-1-decenyl]-4-methoxy-5-methyltetrahydro-2H-pyran-3-yl glycinate trifluoroacetic acid salt] | 100 mg/L | 100 mg/L | 100 mg/L | 12.5 mg/L | 12.5 mg/L | 25 mg/L | 12.5 mg/L | 12.5 mg/L | 6.25 mg/L
5 | CO[C@@H]1[C@H](OC(=O)CN)[C@H](CCCC(C)CCCC(C)C)OC[C@@H]1C.O=C(O)C(F)(F)F (stereo partly drawn) [Example 8, (2S,3R,4S,5S)-2-(4,8-dimethylnonyl)-4-methoxyl-5-methyltetrahydro-2H-pyran-3-yl glycinate trifluoroacetic acid salt] | 50 mg/L | 50 mg/L | 50 mg/L | 12.5 mg/L | 12.5 mg/L | 12.5 mg/L | 50 mg/L | 100 mg/L | 50 mg/L
6 | CCC/C=C/C=C/C=C/[C@@H]1OC[C@H](C)[C@H](OC)[C@H]1OC(=O)CN.O=CO [Example 11, (2S,3R,4S,5S)-4-methoxy-5-methyl-2-[(1E,3E,5E)-1,3,5-nonatrienyl]tetrahydro-2H-pyran-3-yl glycinate formic acid salt] | 200 mg/L | 200 mg/L | 100 mg/L | 6.25 mg/L | 6.25 mg/L | 25 mg/L | 6.25 mg/L | 6.25 mg/L | 6.25 mg/L
7 | CCC/C=C/C=C/C=C\[C@@H]1OC[C@H](C)[C@H](OC)[C@H]1OC(=O)CN.O=CO [Example 12, (2S,3R,4S,5S)-4-methoxy-5-methyl-2-[(1Z,3E,5E)-1,3,5-nonatrienyl]tetrahydro-2H-pyran-3-yl glycinate formic acid salt] | 200 mg/L | > 200 mg/L | > 200 mg/L | 1.56 mg/L | 3.13 mg/L | 6.25 mg/L | 25 mg/L | 12.5 mg/L | 25 mg/L
8 | CCCCCCC/C=C\[C@@H]1OC[C@H](C)[C@H](OCCC)[C@H]1OC(=O)CN [Example 22, (2S,3R,4S,5-S)-5-methyl-2-[(Z)-1-nonenyl]-4-prpoxy-tetrahydro-2H-pyran-3-ylglycinate trifluoroacetic acid salt] | 50 mg/L | 50 mg/L | 50 mg/L | 6.25 mg/L | 12.5 mg/L | 12.5 mg/L | 50 mg/L | 50 mg/L | 50 mg/L
9 | CCCCCCCCC[C@@H]1OC[C@H](C)[C@H](OCCC)[C@H]1OC(=O)CN [Example 23, 2S,3R,4S,5S)-5-methyl-2-nonyl-4-propoxytetrahydro-2-H-pyran-3-yl glycinate trifluoroacetic acid salt] | 25 mg/L | 25 mg/L | 50 mg/L | 12.5 mg/L | 12.5 mg/L | 12.5 mg/L | 50 mg/L | 50 mg/L | 50 mg/L
10 | CCCCCCC/C=C\[C@@H]1OC[C@H](C)[C@H](OCC)[C@@H]1OC(=O)CN.O=C(O)C(F)(F)F [Example 27, (2S,3R,4S,5S)-4-ethoxy-5-methyl-2-[(Z)-1-nonenyl]tetrahydro-2H-pyran-3-yl glycinate trifluoroacetic acid salt] | 100 mg/L | 100 mg/L | 50 mg/L | 6.25 mg/L | 12.5 mg/L | 12.5 mg/L | 50 mg/L | 100 mg/L | 50 mg/L
11 | CCCCCCC/C=C/[C@@H]1OC[C@H](C)C[C@H]1OC(=O)CN.O=C(O)C(F)(F)F [Example 28, (2S,3R,5R)-5-methyl-2-[(E)-1-nonenyl]tetrahydro-2H-pyran-3-yl glycinate trifluoroacetic acid salt] | 50 mg/L | 50 mg/L | 50 mg/L | 3.13 mg/L | 3.13 mg/L | 12.5 mg/L | 50 mg/L | 50 mg/L | 25 mg/L
12 | CCCCCCC/C=C/[C@@H]1OC[C@@H](OCc2ccccc2)[C@H](OC)[C@@H]1OC(=O)CN.O=C(O)C(F)(F)F [Example 31, (2S,3R,4S,5R)-5-benzyloxy-4-methoxy-2-[(E)-1-nonenyl]tetra-hydro-2H-pyran-3-yl glycinate trifluoroacetic acid salt] | 50 mg/L | 50 mg/L | 25 mg/L | 6.25 mg/L | 12.5 mg/L | 12.5 mg/L | 100 mg/L | 200 mg/L | 50 mg/L
13 | CCCCCCC/C=C\[C@@H]1OC[C@@H](C)[C@H](OC)[C@H]1OC(=O)CN.O=C(O)C(F)(F)F [Example 42, (2S,3R,4S,5R)-4-methoxy-5-methyl-2-[(Z)-1-nonenyl]tetrahydro-2H-pyran-3-yl glycinate trifluoroacetic acid salt] | 100 mg/L | 50 mg/L | 50 mg/L | 3.13 mg/L | 3.13 mg/L | 12.5 mg/L | 100 mg/L | 100 mg/L | 50 mg/L
14 | CCCCCCCCC[C@@H]1OC[C@@H](C)[C@H](OC)[C@@H]1OC(=O)CN.O=C(O)C(F)(F)F [Example 43, (2S,3R,4S,5R)-4-methoxy-5-methyl-2-nonyltetrahydro-2H-pyran-3-yl glycinate trifluoroacetic acid salt] | 50 mg/L | 25 mg/L | 25 mg/L | 6.25 mg/L | 6.25 mg/L | 12.5 mg/L | 50 mg/L | 50 mg/L | 25 mg/L
15 | CCCCCCC/C=C/[C@@H]1OC[C@H](C)C2(OCCO2)[C@H]1OC(=O)CN.O=C(O)C(F)(F)F [Example 46, (6S,7S,10S)-10-methyl-7-[(E)-1-nonenyl]-1,4,8-trioxaspiro[4,5]decan-6-yl glycinate trifluoroacetic acid salt] | 50 mg/L | 25 mg/L | 25 mg/L | 25 mg/L | 50 mg/L | 50 mg/L | 25 mg/L | 25 mg/L | 25 mg/L
16 | CCCCC/C=C/C=C/[C@@H]1OC[C@H](C)[C@H](OC)[C@H]1OC(=O)CN.O=CO [Example 47, (2S,3R,4S,5S)-4-methoxy-5-methyl-2-[(1E,3E)-1,3-nonadienyl]tetrahydro-2H-pyran-3-yl glycinate formic acid salt] | 100 mg/L | 100 mg/L | 100 mg/L | 12.5 mg/L | 12.5 mg/L | 25 mg/L | 25 mg/L | 25 mg/L | 25 mg/L

Reference: patent US5719291A, “Cyclohexane derivatives” (Hoffmann-La Roche Inc., priority 1991, dated 1998)
